In one test the test system is NMDA NR1 subunit. Briefly: NMDA receptor-1 immunohistochemical staining of hippocampus. Format: in vivo, male Wistar rats. To be noted: CA1 and CA3; post-treatment. Here is the method: Aged rats (male Wistar rats, 18-20 months old) were divided into four groups: two vehicle-treated (groups 1 and 3) and two G-2-AllylP treated (groups 2 and 4) (all groups n=6-8). Cyclic G-2-AllylP was synthesised by the Department of Medicinal Chemistry and dissolved in normal saline before the treatment. On day 1 a single dose of cyclic G-2-AllylP was given centrally (20 ng/animal, i.c.v.) to the animals in groups 2 and 4; saline was administered to groups 1 and 3. The memory tests using Novel Object Recognition Test started either on day 3 (groups 1 and 2) or 24 (groups 3 and 4) after the treatment. On the completion of the NORT, the rats were killed with an overdose of sodium pentobarbital and were perfused transcardially with normal saline followed by 10% formalin. Tissues collected at day 7 in groups 1 and 2, and at day 28 from groups 3 and 4. The brains were kept in the same fixative for a minimum of 2 days before being processed using a standard paraffin embedding procedure. Briefly, small blocks (10×10×3 mm) of tissue were fixed for up to 24 hrs. The blocks were then infiltrated and embedded with paraffin and cut in ribbons and mounted on slides. Slides were then stored until immunostaining was commenced. Synaptogenesis in brain tissue was examined using immunohistochemical staining. […]

A further test concerns MeCP2 knockout mice. Kind of test: Nocturnal activity measurements. It counts as in vivo. To be noted: MeCP2 knockout mice after 6 weeks; nocturnal infrared beam crossing. How it is done: Spontaneous motor activity is measured by using an infrared beam-activated movement-monitoring chamber (Opto-Varimax-MiniA; Columbus Instruments, Columbus, Ohio). For each experiment, a mouse is placed in the chamber at least 3 h before recordings started. Movement is monitored during the normal 12-h dark cycle (7 p.m. to 7 a.m.). One dark cycle per animal per time point is collected.
MeCP2−/y mice develop Rett-like symptoms beginning at 4-6 weeks of age when they progressively become lethargic, develop gait ataxia and […] (Chen et al., 2001). Baseline locomotor activity is also recorded in mice after 6 weeks by counting nocturnal infrared beam crossing events within a caged area.

For another test, the system named is layer 5 cortical neurons. Kind of test: Intracellular whole-cell recordings of spontaneous EPSCs in acute brain slices. Format: in vivo, mice. To be noted: MeCP2-/y animals; 20 mg/kg daily; vs vehicle.
Test [1] deals with fmr1-knockout and wild-type animals. Briefly: Contextual fear conditioning (freezing behavior). Format: in vivo, mice. The text has this:
Fear conditioning to either a cure or a context represents a form of associative learning that has been well used in many species. The dependent measure used in contextual (delay) fear conditioning is a freezing response that takes place following pairing of an unconditioned stimulus (foot shock), with a conditioned stimulus (CS), a particular context and/or such a cue. If in a conditioning context one administers a foot shock that is paired with atone, there will be learning not only to the tone, but also to the context.
Contextual fear conditioning is a bask conditioning procedure. It involves taking an animal and placing it in a novel environment, providing an aversive stimulus, and then removing it. […] Freezing is a response to fear, which has been defined as “absence of movement except for respiration.” This freezing behavior may last from seconds to minutes depending on the strength of the aversive stimulus, the number of presentations, and the degree of learning achieved by the subject.
The device used in this study is depicted in FIG. 27. An unconditioned stimulus (mild shock to the feet) was applied, and the conditioned stimulus was a tone applied along with the shock to the feet. Under these conditions, the animals associate the unconditioned stimulus with both the conditioned stimulus and the context of the stimuli. Animals were tested for […].

`C=CC[C@]12CCCN1C(=O)CNC2=O` [cG-2-AllylP, (8aS)-Allyl-hexahydropyrrolo[1,2-a]pyrazine-1,4-dione]: in the test on NMDA NR1 subunit, the “changes in the NMDA receptors” value is given as “not so pronounced”. For the same compound, in the test with MeCP2 knockout mice, the locomotor activity levels result is on record as “elevates these levels”. The EPSC amplitude result with layer 5 cortical neurons is on record as “significantly larger in amplitude”. In addition, the “time spent in freezing behavior” value in test [1] was “substantial and statistically significant increase in the time spent in freezing behavior”.

(Values after US11197856B2, “Bicyclic compounds and methods for their use in treating autism” (priority 2013, dated 2021).)
